From ChEMBL document CHEMBL1909046, “DrugMatrix in vitro pharmacology data”

Assays:
Substance-P receptor = Substance-P receptor (Homo sapiens, UniProt P25103); assay type: cell membranes, Membrane; settings: cho; also: in other assays of this panel Not Active means under 50% inhibition at 10 µM
[1] = DRUGMATRIX: Tumor Necrosis Factor (TNF), Non-Selective radioligand binding (ligand: [125I] TNF-alpha); assay type: cell membranes, Membrane; settings: u-937; Not Active = under 50% inhibition at 10 µM
[2] = molecular target: Tyrosine-protein kinase Lck (Homo sapiens, UniProt P06239); assay: DRUGMATRIX: Protein Tyrosine Kinase, LCK enzyme inhibition (substrate: Poly(Glu:Tyr)); assay type: cell-based, Insect cells; settings: insect cells; Not Active = under 50% inhibition at 10 µM
[3] = DRUGMATRIX: Interleukin IL-1 radioligand binding (ligand: [125I] interleukin 1beta); assay type: cell membranes, Membrane; settings: nih3t3; Not Active = under 50% inhibition at 10 µM
[4] = molecular target: T1, Neuropeptide Y receptor type 2 (Homo sapiens, UniProt P49146); assay type: cell membranes, Membrane; settings: kan-ts; also: in other assays of this panel Not Active means under 50% inhibition at 10 µM
T1 sequence (P49146 whole entry): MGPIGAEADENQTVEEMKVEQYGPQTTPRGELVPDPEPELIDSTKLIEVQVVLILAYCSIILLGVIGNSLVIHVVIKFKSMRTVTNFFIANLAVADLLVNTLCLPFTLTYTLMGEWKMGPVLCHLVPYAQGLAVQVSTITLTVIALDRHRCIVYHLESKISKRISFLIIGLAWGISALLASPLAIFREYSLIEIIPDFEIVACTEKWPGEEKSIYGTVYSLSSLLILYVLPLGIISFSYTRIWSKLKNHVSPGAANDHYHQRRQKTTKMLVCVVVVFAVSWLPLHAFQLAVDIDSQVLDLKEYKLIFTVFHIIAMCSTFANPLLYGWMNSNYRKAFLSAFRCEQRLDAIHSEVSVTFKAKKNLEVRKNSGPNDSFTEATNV

[5] = DRUGMATRIX: Phosphodiesterase PDE4 enzyme inhibition (substrate: [3H]cAMP + cAMP); settings: u-937; Not Active = under 50% inhibition at 10 µM
[6] = molecular target: Beta-1 adrenergic receptor (Homo sapiens, UniProt P08588); assay: DRUGMATRIX: Adrenergic beta1 radioligand binding (ligand: [125I] Cyanopindolol); assay type: cell membranes, CHO-K1, Membrane; settings: cho-k1; Not Active = under 50% inhibition at 10 µM
Calcitonin receptor = molecular target: T2, Calcitonin receptor (Homo sapiens, UniProt P30988); assay type: cell membranes, Membrane; settings: t47d; also: in other assays of this panel Not Active means under 50% inhibition at 10 µM
T2 sequence (P30988 whole entry): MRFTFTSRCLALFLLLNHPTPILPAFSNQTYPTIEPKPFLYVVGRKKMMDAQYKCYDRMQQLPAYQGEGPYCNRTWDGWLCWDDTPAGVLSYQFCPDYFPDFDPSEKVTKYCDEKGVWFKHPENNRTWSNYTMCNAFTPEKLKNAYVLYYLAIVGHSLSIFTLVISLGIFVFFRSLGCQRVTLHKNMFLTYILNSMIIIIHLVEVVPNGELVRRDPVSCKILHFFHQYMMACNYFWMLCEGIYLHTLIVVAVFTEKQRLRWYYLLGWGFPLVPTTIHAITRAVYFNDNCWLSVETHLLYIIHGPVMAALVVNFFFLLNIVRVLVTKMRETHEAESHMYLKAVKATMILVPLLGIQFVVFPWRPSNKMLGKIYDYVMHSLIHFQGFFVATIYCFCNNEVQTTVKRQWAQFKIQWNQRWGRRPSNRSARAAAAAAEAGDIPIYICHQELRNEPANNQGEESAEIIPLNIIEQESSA

[7] = molecular target: cGMP-specific 3',5'-cyclic phosphodiesterase (Homo sapiens, UniProt O76074); assay: DRUGMATRIX: Phosphodiesterase PDE5 enzyme inhibition (substrate: [3H]cGMP + cGMP); assay type: tissue-based; settings: platelet; Not Active = under 50% inhibition at 10 µM

Chain of Beta-1 adrenergic receptor (P08588 whole entry): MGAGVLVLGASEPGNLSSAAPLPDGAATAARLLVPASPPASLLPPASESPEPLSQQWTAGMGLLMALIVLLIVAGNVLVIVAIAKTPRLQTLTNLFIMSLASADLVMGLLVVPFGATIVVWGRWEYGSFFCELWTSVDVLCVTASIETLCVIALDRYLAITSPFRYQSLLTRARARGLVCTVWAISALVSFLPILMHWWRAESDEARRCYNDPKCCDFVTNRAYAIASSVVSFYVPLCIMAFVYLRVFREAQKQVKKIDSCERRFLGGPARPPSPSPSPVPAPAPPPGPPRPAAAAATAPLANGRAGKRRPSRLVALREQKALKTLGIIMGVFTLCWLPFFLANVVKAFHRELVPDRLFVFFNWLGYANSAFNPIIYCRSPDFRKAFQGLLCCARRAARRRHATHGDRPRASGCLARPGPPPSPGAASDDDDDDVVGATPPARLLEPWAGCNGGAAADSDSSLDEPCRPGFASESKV
Chain of Tyrosine-protein kinase Lck (P06239 whole entry): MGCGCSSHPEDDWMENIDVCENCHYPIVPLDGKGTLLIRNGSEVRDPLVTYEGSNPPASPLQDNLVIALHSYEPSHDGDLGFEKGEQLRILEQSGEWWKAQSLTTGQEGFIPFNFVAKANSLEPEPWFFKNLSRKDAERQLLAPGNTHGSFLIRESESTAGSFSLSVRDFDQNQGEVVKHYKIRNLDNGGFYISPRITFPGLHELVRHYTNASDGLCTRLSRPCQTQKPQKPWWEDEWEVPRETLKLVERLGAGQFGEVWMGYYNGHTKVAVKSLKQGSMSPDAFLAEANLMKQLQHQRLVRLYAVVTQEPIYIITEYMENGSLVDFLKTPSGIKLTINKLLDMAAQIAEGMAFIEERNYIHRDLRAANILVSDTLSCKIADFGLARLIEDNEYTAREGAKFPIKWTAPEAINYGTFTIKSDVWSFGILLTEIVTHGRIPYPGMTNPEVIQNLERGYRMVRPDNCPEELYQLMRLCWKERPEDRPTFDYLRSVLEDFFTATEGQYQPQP
Chain of Substance-P receptor (P25103 whole entry): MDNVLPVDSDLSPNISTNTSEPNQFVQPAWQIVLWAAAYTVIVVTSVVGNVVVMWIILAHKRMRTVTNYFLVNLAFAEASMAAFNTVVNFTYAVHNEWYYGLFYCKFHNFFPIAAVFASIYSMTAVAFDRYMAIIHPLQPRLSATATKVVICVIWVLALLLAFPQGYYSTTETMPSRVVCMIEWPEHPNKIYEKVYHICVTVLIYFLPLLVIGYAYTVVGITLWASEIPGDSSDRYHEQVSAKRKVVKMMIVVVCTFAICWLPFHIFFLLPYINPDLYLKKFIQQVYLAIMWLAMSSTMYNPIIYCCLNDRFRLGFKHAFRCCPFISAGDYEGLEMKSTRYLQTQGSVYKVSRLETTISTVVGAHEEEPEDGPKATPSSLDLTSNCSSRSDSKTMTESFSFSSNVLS

STANNOUS FLUORIDE
Not Active: IC50 (Substance-P receptor) | Ki (Substance-P receptor) | IC50 [1] | Ki [1] | IC50 [2] | Ki [2] | IC50 [3] | Ki [3] | IC50 [4] | Ki [4] | IC50 [5] | Ki [5] | IC50 [6] | Ki [6] | IC50 (Calcitonin receptor) | Ki (Calcitonin receptor) | IC50 [7] | Ki [7]

C[C@@H](O)[C@H]1C(=O)N2C(C(=O)O)=C(S[C@@H]3CN[C@H](C(=O)N(C)C)C3)[C@H](C)[C@H]12 [MEROPENEM]
Not Active: IC50 (Substance-P receptor) | IC50 [1] | Ki [1] | IC50 [2] | IC50 [3] | Ki [3] | IC50 [4] | IC50 [5] | Ki [5] | IC50 [6] | IC50 (Calcitonin receptor) | IC50 [7]

COc1ncnc(NS(=O)(=O)c2ccc(N)cc2)c1OC [SULFADOXINE]
Not Active: IC50 (Substance-P receptor) | IC50 [1] | Ki [1] | IC50 [2] | IC50 [3] | Ki [3] | IC50 [4] | IC50 [5] | Ki [5] | IC50 [6] | IC50 (Calcitonin receptor) | IC50 [7]

CCCc1nn(C)c2c(=O)[nH]c(-c3cc(S(=O)(=O)N4CCN(C)CC4)ccc3OCC)nc12
Not Active: IC50 (Substance-P receptor) | IC50 [1] | Ki [1] | IC50 [2] | IC50 [3] | Ki [3] | IC50 [4] | IC50 [5] | Ki [5] | IC50 [6] | IC50 (Calcitonin receptor)

COc1ccc(/C=C/C(=O)Nc2ccccc2C(=O)O)cc1OC
Not Active: IC50 (Substance-P receptor) | IC50 [1] | Ki [1] | IC50 [2] | IC50 [3] | Ki [3] | IC50 [4] | IC50 [5] | Ki [5] | IC50 [6] | IC50 (Calcitonin receptor) | IC50 [7]

CC1=C(CC(=O)O)c2cc(F)ccc2/C1=C\c1ccc(S(C)(=O)=O)cc1 [EXISULIND]
Not Active: IC50 (Substance-P receptor) | IC50 [1] | Ki [1] | IC50 [2] | IC50 [3] | Ki [3] | IC50 [4] | IC50 [5] | Ki [5] | IC50 [6] | IC50 (Calcitonin receptor) | IC50 [7]

CN1C2CCCC1CC(NC(=O)c1nn(C)c3ccccc13)C2 (stereo not given) [GRANISETRON]
Not Active: IC50 (Substance-P receptor) | IC50 [2] | IC50 [4] | IC50 [6] | IC50 (Calcitonin receptor) | IC50 [7]

Cc1cn([C@H]2C[C@H](N=[N+]=[N-])[C@@H](CO)O2)c(=O)[nH]c1=O [ZIDOVUDINE]
Not Active: IC50 (Substance-P receptor) | IC50 [1] | Ki [1] | IC50 [2] | IC50 [3] | Ki [3] | IC50 [4] | IC50 [5] | Ki [5] | IC50 [6] | IC50 (Calcitonin receptor) | IC50 [7]

OCCN1CCN(CCCN2c3ccccc3Sc3ccc(C(F)(F)F)cc32)CC1 [FLUPHENAZINE]
Not Active: IC50 (Substance-P receptor) | IC50 [2] | IC50 [4] | IC50 [6] | IC50 (Calcitonin receptor) | IC50 [7]

CC(C)(C)NC[C@H](O)COc1nsnc1N1CCOCC1 [TIMOLOL]
Not Active: IC50 (Substance-P receptor) | IC50 [1] | Ki [1] | IC50 [2] | IC50 [3] | Ki [3] | IC50 [4] | IC50 [5] | Ki [5] | IC50 (Calcitonin receptor) | IC50 [7]

Nc1nc2c(c(=O)[nH]1)N(C=O)C(CNc1ccc(C(=O)N[C@@H](CCC(=O)O)C(=O)O)cc1)CN2 (stereo not given in full) [LEUCOVORIN]
Not Active: IC50 (Substance-P receptor) | IC50 [1] | Ki [1] | IC50 [2] | IC50 [3] | Ki [3] | IC50 [4] | IC50 [5] | Ki [5] | IC50 [6] | IC50 (Calcitonin receptor) | IC50 [7]

O=c1n(CCCN2CCN(c3cccc(Cl)c3)CC2)nc2ccccn12 [TRAZODONE]
Not Active: IC50 (Substance-P receptor) | IC50 [2] | IC50 [4] | IC50 [6] | IC50 (Calcitonin receptor) | IC50 [7]

COc1cc(C(=O)NS(=O)(=O)c2ccccc2C)ccc1Cc1cn(C)c2ccc(NC(=O)OC3CCCC3)cc12 [ZAFIRLUKAST]
Not Active: IC50 (Substance-P receptor) | IC50 [1] | Ki [1] | IC50 [2] | IC50 [3] | Ki [3] | IC50 [4] | IC50 [5] | Ki [5] | IC50 [6] | IC50 (Calcitonin receptor) | IC50 [7]

CCOC(N)=O
Not Active: IC50 (Substance-P receptor) | IC50 [1] | Ki [1] | IC50 [2] | IC50 [3] | Ki [3] | IC50 [4] | IC50 [5] | Ki [5] | IC50 [6] | IC50 (Calcitonin receptor) | IC50 [7]

CN(CCOc1ccc(CC2SC(=O)NC2=O)cc1)c1ccccn1 (stereo not given) [ROSIGLITAZONE]
Not Active: IC50 (Substance-P receptor) | IC50 [1] | Ki [1] | IC50 [2] | IC50 [3] | Ki [3] | IC50 [4] | IC50 [5] | Ki [5] | IC50 [6] | IC50 (Calcitonin receptor) | IC50 [7]

CC(=O)O[C@H]1C[C@@H]2CC[C@@H]3[C@H](CC[C@@]4(C)[C@H]3C[C@H]([N+]3(C)CCCCC3)[C@@H]4OC(C)=O)[C@@]2(C)C[C@@H]1N1CCCCC1.[Br-] [VECURONIUM BROMIDE]
Not Active: IC50 (Substance-P receptor) | IC50 [1] | Ki [1] | IC50 [2] | IC50 [3] | Ki [3] | IC50 [4] | IC50 [5] | Ki [5] | IC50 [6] | IC50 (Calcitonin receptor) | IC50 [7]

Nc1ccc(S(=O)(=O)Nc2ncccn2)cc1 [SULFADIAZINE]
Not Active: IC50 (Substance-P receptor) | IC50 [1] | Ki [1] | IC50 [2] | IC50 [3] | Ki [3] | IC50 [4] | IC50 [5] | Ki [5] | IC50 [6] | IC50 (Calcitonin receptor) | IC50 [7]

CC(C)OC(=O)C(C)(C)Oc1ccc(C(=O)c2ccc(Cl)cc2)cc1 [FENOFIBRATE]
Not Active: IC50 (Substance-P receptor) | IC50 [2] | IC50 [4] | IC50 [6] | IC50 (Calcitonin receptor) | IC50 [7]

CCN(CC)CC#CCOC(=O)C(O)(c1ccccc1)C1CCCCC1 (stereo not given) [OXYBUTYNIN]
Not Active: Ki (Substance-P receptor) | IC50 [2] | IC50 [4] | IC50 [6] | IC50 (Calcitonin receptor) | IC50 [7]

CC(=O)Nc1nnc(S(N)(=O)=O)s1 [ACETAZOLAMIDE]
Not Active: IC50 (Substance-P receptor) | IC50 [2] | IC50 [4] | IC50 [6] | IC50 (Calcitonin receptor) | IC50 [7]

COc1cc(N)nc2[nH]c(-c3ccc(F)cc3)c(-c3ccncc3)c12
Not Active: IC50 (Substance-P receptor) | IC50 [1] | Ki [1] | IC50 [3] | Ki [3] | IC50 [4] | IC50 [5] | Ki [5] | IC50 [6] | IC50 (Calcitonin receptor) | IC50 [7]

CC[C@@H](CO)NC(=O)[C@@H]1C=C2c3cccc4c3c(cn4C)C[C@H]2N(C)C1 [METHYSERGIDE]
Not Active: IC50 (Substance-P receptor) | IC50 [2] | IC50 [4] | IC50 (Calcitonin receptor) | IC50 [7]

O=c1[nH]c2ccccc2n1CCCN1CCC(n2c(=O)[nH]c3cc(Cl)ccc32)CC1 [DOMPERIDONE]
Not Active: IC50 (Substance-P receptor) | IC50 [2] | IC50 [4] | IC50 [6] | IC50 (Calcitonin receptor) | IC50 [7]
